Experiments:
SOD1-ALS lymphoblasts = assay: NRF2 pathway in SOD1-ALS lymphoblasts; assay type: cell-based, human; details: 20 μM, 24 h
Text: Peripheral blood samples of all the individuals enrolled in this study were collected after written informed consent of the patients or their relatives (demographic information is presented in Table 9) to establish the lymphoblastoid cell lines (LCLs), by infecting peripheral blood lymphocytes with the Epstein–Barr virus (EBV), as previously described.[68] Participants or their relatives gave written informed consent. This study was approved by the Hospital Doce de Octubre and the Spanish Council of Higher Research Institutional Review Boards. All patients were diagnosed by applying the revised El Escorial criteria.[69] […] Genetic testing for SOD1, TARDBP, FUS, and C9ORF72 was performed in all cases.
LCLs were grown in suspensions in T flasks, in an RPMI-1640 medium containing 2 mM L-glutamine, 100 μg/mL streptomycin/penicillin, and 10% (v/v) fetal bovine serum (FBS) and maintained in a humidified 5% CO2 incubator at 37 °C.
(§1) Whole cell lysates were prepared in RIPA-buffer (25 mM Tris-HCl, pH 7.6, 150 mM NaCl, 1 mM EGTA, 1% Igepal, 1% sodium deoxycholate, 0.1% SDS, 1 mM PSMF, 1 mM Na3VO4, 1 mM NaF, 1 μg/mL aprotinin, 1 μg/mL leupeptin, and 1 μg/mL pepstatin). […] Immunoblots were analyzed as described previously.[48] […]
Total RNA extraction, reverse transcription, and quantitative polymerase chain reaction (PCR) were done as detailed in previous articles.[72] […]

Keap1+/+ MEFs = assay: qRT-PCR of NRF2 target genes in wild-type MEFs; assay type: cell-based, mouse; details: 20 μM, 4, 8 and 24 h
Procedure: (§2) Human embryonic kidney (HEK) 293T cells were grown in Dulbecco’s modified Eagle’s medium (DMEM) supplemented with 10% fetal bovine serum and 80 μg/mL gentamycin. Transient transfections were performed with calcium phosphate using reagents from Sigma. The Keap1^–/– mouse embryo fibroblasts (MEFs) and their corresponding wild-type Keap1^+/+ MEFs were kindly provided by Dr. Ken Itoh (Department of Stress Response Science, Center for Advanced Medical Science, Hirosaki University, Japan). MEFs were grown in DMEM supplemented with 10% fetal bovine serum, 1% penicillin/streptomycin, and 2 mm L-glutamine. SH-SY5Y cells were grown in DMEM and Ham’s F12 supplemented with 10% fetal bovine serum (FBS) and 1% penicillin/streptomycin. The medium was changed to serum-free DMEM without antibiotics 16 h before treatments. DMF (cat. no. 242926, Sigma-Aldrich) was used at 20 μM for 16 h.
(§3) Total RNA extraction, reverse transcription, and quantitative polymerase chain reaction (PCR) were done as detailed in previous articles.[72] Primer sequences are shown in Supporting Information Table S5. Data analysis was based on the ΔΔCT method with normalization of the raw data to housekeeping genes (Applied Biosystems). All PCRs were performed in triplicates.

[1] = target: NRF2–KEAP1 protein–protein interaction (Homo sapiens, UniProt Q14145); assay: Fluorescence polarization (FP) assay; assay type: binding
KEAP1 = KEAP1 (Homo sapiens, UniProt Q14145); assay: Differential scanning fluorimetry (DSF) assay; assay type: binding; details: 100 μM; difference from KEAP1 alone (Ti 61.3 °C)
Keap1–/– MEFs = assay: qRT-PCR of NRF2 target genes in KEAP1-deficient MEFs; assay type: cell-based, mouse; details: 20 μM, 4, 8 and 24 h
Procedure: as §2, §3

ROCK-II (ROKa) = ROCK-II (ROKa) (Rattus norvegicus, UniProt Q62868); assay: ROCK inhibition studies (33P-ATP, Long S6 substrate peptide); assay type: biochemical
Procedure: ROCK-II (ROKa) (5–20 mU diluted in 50 mM Tris pH 7.5, 0.1 mM EGTA, 0.1% 2-mercaptoethanol, and 1 mg/mL BSA) was assayed against the Long S6 substrate peptide ([…]) in a final volume of 25.5 μL containing 50 mM Tris pH 7.5, 0.1 mM EGTA, 30 μM Long S6 substrate peptide, 10 mM magnesium acetate, and 0.02 mM [33P-g-ATP] (50–1000 cpm/pmol) and incubated for 30 min at room temperature. Assays were stopped by addition of 5 μL of 0.5 M (3%) orthophosphoric acid and then harvested onto P81 Unifilter plates with a wash buffer of 50 mM orthophosphoric acid.

NRF2 in SH-SY5Y cells = assay: Subcellular fractionation and immunoblot of NRF2; assay type: cell-based; details: 20 μM, 1, 2 and 4 h
Procedure: SH-SY5Y cells were seeded in p100 plates (1 × 10^6 cells/plate) and treated with 20 μM compound 1d. Cytosolic and nuclear fractions were prepared as described previously.[71] Briefly, cells were washed with cold PBS and harvested by centrifugation at 1100 rpm for 10 min. The cell pellet was resuspended in 3 pellet volumes of cold buffer A (20 mm HEPES, pH 7.0, 0.15 mm EDTA, 0.015 mm EGTA, 10 mm KCl, 1% Nonidet P-40, 1 mm phenylmethylsulfonyl fluoride, 20 mm NaF, 1 mm sodium pyrophosphate, 1 mm sodium orthovanadate, and 1 μg/mL leupeptin) and incubated in ice for 30 min. Then, the homogenate was centrifuged at 500g for 5 min. The supernatants were taken as the cytosolic fraction. The nuclear pellet was resuspended in 5 volumes of cold buffer B (10 mm HEPES, pH 8.0, 0.1 mm EDTA, 0.1 mm NaCl, 25% glycerol, 1 mm phenylmethylsulfonyl fluoride, 20 mm NaF, 1 mm sodium pyrophosphate, 1 mm sodium orthovanadate, and 1 μg/mL leupeptin). After centrifugation in the same conditions indicated above, the nuclei were resuspended in loading buffer containing 0.5% SDS. […]
as §1

HEK293T cells = assay: MTT viability assay; assay type: cell-based, human; details: 20 µM, Table S3
Procedure: (§4) HEK293T cells were plated in 24-well culture plates (75,000 cells/well) and incubated in a CO2 incubator. The next day, treatment was given according to the experimental requirement. Sixteen hours later, 50 μL of MTT solutions from the stock (5 mg/mL) was added, and cells were incubated in a CO2 incubator in the dark for 2 h. The medium was removed, and formazan crystals formed by the cells were dissolved using 500 μL of DMSO followed by transfer in 96-well plates. The absorbance was read at a 570 nm wavelength on a multiwell plate reader.[70]

MTT viability assay = assay type: cell-based, human; details: human, HEK293T cells, HEK293T, 16 h, read-out: Cell viability (MTT)
Procedure: as §4

Chain of ROCK-II (ROKa) (Q62868 2-543 limits assumed): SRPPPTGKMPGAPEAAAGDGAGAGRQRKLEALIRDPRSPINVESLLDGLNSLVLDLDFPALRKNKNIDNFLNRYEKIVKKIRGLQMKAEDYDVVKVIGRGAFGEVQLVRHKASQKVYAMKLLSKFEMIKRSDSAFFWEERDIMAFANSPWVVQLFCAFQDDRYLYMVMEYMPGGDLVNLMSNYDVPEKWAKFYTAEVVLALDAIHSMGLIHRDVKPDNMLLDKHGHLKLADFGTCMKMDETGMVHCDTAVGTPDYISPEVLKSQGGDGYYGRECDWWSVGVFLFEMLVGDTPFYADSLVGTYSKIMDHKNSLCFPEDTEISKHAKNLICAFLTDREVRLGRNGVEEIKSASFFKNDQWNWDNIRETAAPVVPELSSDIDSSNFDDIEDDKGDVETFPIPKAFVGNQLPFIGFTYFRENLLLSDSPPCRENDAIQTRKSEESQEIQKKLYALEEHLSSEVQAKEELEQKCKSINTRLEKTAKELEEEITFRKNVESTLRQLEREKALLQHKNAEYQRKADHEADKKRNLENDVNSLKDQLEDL
Chain of NRF2–KEAP1 protein–protein interaction (Q14145 whole entry): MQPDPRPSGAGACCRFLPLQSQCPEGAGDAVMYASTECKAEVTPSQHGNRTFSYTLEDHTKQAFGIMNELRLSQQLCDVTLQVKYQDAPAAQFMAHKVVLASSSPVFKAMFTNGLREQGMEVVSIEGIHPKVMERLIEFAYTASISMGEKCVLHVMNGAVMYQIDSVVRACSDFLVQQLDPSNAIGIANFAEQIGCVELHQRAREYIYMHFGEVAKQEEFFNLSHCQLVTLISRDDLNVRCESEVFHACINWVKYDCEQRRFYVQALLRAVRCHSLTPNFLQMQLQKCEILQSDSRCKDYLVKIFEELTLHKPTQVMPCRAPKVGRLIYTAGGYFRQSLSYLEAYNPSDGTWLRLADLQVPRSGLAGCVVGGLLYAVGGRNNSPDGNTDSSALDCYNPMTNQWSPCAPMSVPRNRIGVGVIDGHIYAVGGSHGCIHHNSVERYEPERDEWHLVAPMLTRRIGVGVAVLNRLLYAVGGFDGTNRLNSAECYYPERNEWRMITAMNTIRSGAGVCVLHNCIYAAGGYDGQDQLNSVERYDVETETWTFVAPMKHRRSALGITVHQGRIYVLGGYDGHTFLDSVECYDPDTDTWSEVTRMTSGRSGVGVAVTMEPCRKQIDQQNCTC
Chain of KEAP1 (Q14145 whole entry): as above

For O=C(CCc1ccc(O)c(O)c1)N1CCCN(S(=O)(=O)c2cccc3cnccc23)CC1 [Compound 1d, 3-(3,4-Dihydroxyphenyl)-1-(4-(isoquinolin-5-ylsulfonyl)-1,4-diazepan-1-yl)propan-1-one], the “HMOX1 and NQO1 levels (mRNA and protein)” value (SOD1-ALS lymphoblasts) was “capable of inducing HMOX1 and NQO1 levels in a very significant way”, the “mRNA levels of HMOX1 and NQO1” value (Keap1+/+ MEFs) was “increased the mRNA levels” and the inhibition at 100 µM ([1]; 100 μM, read-out: FP % inhibition (± S.E.M.)) was under 10%. For the same compound, the “inhibition of the NRF2–KEAP1 interaction” value ([1]; FP and DSF, 100 μM or lower concentrations) was “not able to inhibit”, the “ΔTi (± S.E.M.)” value (KEAP1) was “+0.2 (± 0.1) °C” and the “expression of HMOX1” value (Keap1–/– MEFs) was “to a lesser extent than in the wild-type cells”. For the same compound, the “expression of NQO1” value (Keap1–/– MEFs) was “not capable of inducing”, the remaining activity at 10 µM (ROCK-II (ROKa); 0.5 h, 10 microM, supplementary CSV, read-out: ROCK2 activity @ 10microM) was 14.6 ± 4.1% and the IC50 (ROCK-II (ROKa); Table 3, read-out: ROCK2 inhibition IC50) was 730 nM. The “ROCK2 inhibition potency compared with fasudil” value (ROCK-II (ROKa); in words) was “potency similar to the reference compound”, the “subcellular distribution of NRF2” value (NRF2 in SH-SY5Y cells) was “induced a significant accumulation of NRF2 in the nucleus” and the “MTT (%)” value (HEK293T cells) was under 20%. For the same compound, the viability at 16 h, 20 µM (MTT viability assay; 20 μM) was 100 ± 1.02% and the viability at 16 h, 60 µM (MTT viability assay; 60 μM) was 103.7 ± 0.837%.

From PMC9132363 (Journal of Medicinal Chemistry, 2022)
